Measured values taken from ChEMBL document CHEMBL3632622, “Synthesis and biological evaluation of novel N-phenyl ureidobenzenesulfonate derivatives as potential anticancer agents. Part 2. Modulation of the ring B” (Eur J Med Chem, 2015).

Legend:
[1] = system: M21; assay: Cell cycle arrest in human M21 cells assessed as accumulation at G0/G1 phase at 1.2 uM after 24 hrs by DAPI staining-based flow cytometry (reference value: 65.1%); type: functional
[2] = Antiproliferative activity against human HT1080 cells assessed as growth inhibition incubated for 48 hrs by sulforhodamine B assay; type: functional, cell-based, HT-1080; details: Homo sapiens, HT-1080, 48 h; read-out: IC50
[3] = system: MCF7; assay: Antiproliferative activity against human MCF7 cells assessed as growth inhibition incubated for 48 hrs by sulforhodamine B assay; type: functional, cell-based; details: MCF7, 48 h
[4] = system: HT-29; assay: Antiproliferative activity against human HT-29 cells assessed as growth inhibition incubated for 48 hrs by sulforhodamine B assay; type: functional, cell-based; details: HT-29, 48 h
[5] = system: M21; assay: Antiproliferative activity against human M21 cells assessed as growth inhibition incubated for 48 hrs by sulforhodamine B assay; type: functional, cell-based; details: M21, 48 h
[6] = system: M21; assay: Cell cycle arrest in human M21 cells assessed as accumulation at G2/M phase at 1.2 uM after 24 hrs by DAPI staining-based flow cytometry (reference value: 16%); type: functional
[7] = system: M21; assay: Cell cycle arrest in human M21 cells assessed as accumulation at S phase at 1.2 uM after 24 hrs by DAPI staining-based flow cytometry (reference value: 17.4%); type: functional
[8] = system: M21; assay: Cell cycle arrest in human M21 cells assessed as accumulation at subG1 phase at 1.2 uM after 24 hrs by DAPI staining-based flow cytometry (reference value: 1.5%); type: functional
[9] = system: M21; assay: Cell cycle arrest in human M21 cells assessed as accumulation at subG1 phase at 11 uM after 24 hrs by DAPI staining-based flow cytometry (reference value: 1.5%); type: functional
[10] = system: M21; assay: Cell cycle arrest in human M21 cells assessed as accumulation at G0/G1 phase at 11 uM after 24 hrs by DAPI staining-based flow cytometry (reference value: 65.1%); type: functional
[11] = system: M21; assay: Cell cycle arrest in human M21 cells assessed as accumulation at S phase at 11 uM after 24 hrs by DAPI staining-based flow cytometry (reference value: 17.4%); type: functional
[12] = system: M21; assay: Cell cycle arrest in human M21 cells assessed as accumulation at G2/M phase at 11 uM after 24 hrs by DAPI staining-based flow cytometry (reference value: 16%); type: functional
[13] = system: M21; assay: Cell cycle arrest in human M21 cells assessed as accumulation at G0/G1 phase at 40 uM after 24 hrs by DAPI staining-based flow cytometry (reference value: 65.1%); type: functional
[14] = system: M21; assay: Cell cycle arrest in human M21 cells assessed as accumulation at S phase at 40 uM after 24 hrs by DAPI staining-based flow cytometry (reference value: 17.4%); type: functional
[15] = system: M21; assay: Cell cycle arrest in human M21 cells assessed as accumulation at G2/M phase at 40 uM after 24 hrs by DAPI staining-based flow cytometry (reference value: 16%); type: functional
[16] = system: M21; assay: Cell cycle arrest in human M21 cells assessed as accumulation at subG1 phase at 40 uM after 24 hrs by DAPI staining-based flow cytometry (reference value: 1.5%); type: functional
[17] = system: M21; assay: Cell cycle arrest in human M21 cells assessed as accumulation at S phase at 7.5 uM after 24 hrs by DAPI staining-based flow cytometry (reference value: 17.4%); type: functional
[18] = system: M21; assay: Cell cycle arrest in human M21 cells assessed as accumulation at subG1 phase at 7.5 uM after 24 hrs by DAPI staining-based flow cytometry (reference value: 1.5%); type: functional
[19] = system: M21; assay: Cell cycle arrest in human M21 cells assessed as accumulation at G0/G1 phase at 7.5 uM after 24 hrs by DAPI staining-based flow cytometry (reference value: 65.1%); type: functional
[20] = system: M21; assay: Cell cycle arrest in human M21 cells assessed as accumulation at G2/M phase at 7.5 uM after 24 hrs by DAPI staining-based flow cytometry (reference value: 16%); type: functional
[21] = system: M21; assay: Cell cycle arrest in human M21 cells assessed as accumulation at subG1 phase at 42 uM after 24 hrs by DAPI staining-based flow cytometry (reference value: 1.5%); type: functional
[22] = system: M21; assay: Cell cycle arrest in human M21 cells assessed as accumulation at G0/G1 phase at 42 uM after 24 hrs by DAPI staining-based flow cytometry (reference value: 65.1%); type: functional
[23] = system: M21; assay: Cell cycle arrest in human M21 cells assessed as accumulation at S phase at 42 uM after 24 hrs by DAPI staining-based flow cytometry (reference value: 17.4%); type: functional
[24] = system: M21; assay: Cell cycle arrest in human M21 cells assessed as accumulation at G2/M phase at 42 uM after 24 hrs by DAPI staining-based flow cytometry (reference value: 16%); type: functional
[25] = system: M21; assay: Cell cycle arrest in human M21 cells assessed as accumulation at G0/G1 phase at 1.7 uM after 24 hrs by DAPI staining-based flow cytometry (reference value: 65.1%); type: functional
[26] = system: M21; assay: Cell cycle arrest in human M21 cells assessed as accumulation at S phase at 1.7 uM after 24 hrs by DAPI staining-based flow cytometry (reference value: 17.4%); type: functional
[27] = system: M21; assay: Cell cycle arrest in human M21 cells assessed as accumulation at subG1 phase at 1.7 uM after 24 hrs by DAPI staining-based flow cytometry (reference value: 1.5%); type: functional
[28] = system: M21; assay: Cell cycle arrest in human M21 cells assessed as accumulation at G2/M phase at 1.7 uM after 24 hrs by DAPI staining-based flow cytometry (reference value: 16%); type: functional
[29] = system: M21; assay: Cell cycle arrest in human M21 cells assessed as accumulation at G2/M phase at 22 uM after 24 hrs by DAPI staining-based flow cytometry (reference value: 16%); type: functional
[30] = system: M21; assay: Cell cycle arrest in human M21 cells assessed as accumulation at G0/G1 phase at 22 uM after 24 hrs by DAPI staining-based flow cytometry (reference value: 65.1%); type: functional
[31] = system: M21; assay: Cell cycle arrest in human M21 cells assessed as accumulation at S phase at 22 uM after 24 hrs by DAPI staining-based flow cytometry (reference value: 17.4%); type: functional
[32] = system: M21; assay: Cell cycle arrest in human M21 cells assessed as accumulation at subG1 phase at 22 uM after 24 hrs by DAPI staining-based flow cytometry (reference value: 1.5%); type: functional
[33] = system: M21; assay: Cell cycle arrest in human M21 cells assessed as accumulation at S phase at 32 uM after 24 hrs by DAPI staining-based flow cytometry (reference value: 17.4%); type: functional
[34] = system: M21; assay: Cell cycle arrest in human M21 cells assessed as accumulation at G0/G1 phase at 32 uM after 24 hrs by DAPI staining-based flow cytometry (reference value: 65.1%); type: functional
[35] = system: M21; assay: Cell cycle arrest in human M21 cells assessed as accumulation at G2/M phase at 32 uM after 24 hrs by DAPI staining-based flow cytometry (reference value: 16%); type: functional
[36] = system: M21; assay: Cell cycle arrest in human M21 cells assessed as accumulation at subG1 phase at 32 uM after 24 hrs by DAPI staining-based flow cytometry (reference value: 1.5%); type: functional
[37] = system: M21; assay: Cell cycle arrest in human M21 cells assessed as accumulation at S phase at 43 uM after 24 hrs by DAPI staining-based flow cytometry (reference value: 17.4%); type: functional
[38] = system: M21; assay: Cell cycle arrest in human M21 cells assessed as accumulation at G0/G1 phase at 43 uM after 24 hrs by DAPI staining-based flow cytometry (reference value: 65.1%); type: functional
[39] = system: M21; assay: Cell cycle arrest in human M21 cells assessed as accumulation at G2/M phase at 43 uM after 24 hrs by DAPI staining-based flow cytometry (reference value: 16%); type: functional
[40] = system: M21; assay: Cell cycle arrest in human M21 cells assessed as accumulation at subG1 phase at 43 uM after 24 hrs by DAPI staining-based flow cytometry (reference value: 1.5%); type: functional
[41] = system: M21; assay: Cell cycle arrest in human M21 cells assessed as accumulation at G0/G1 phase at 25 uM after 24 hrs by DAPI staining-based flow cytometry (reference value: 65.1%); type: functional
[42] = system: M21; assay: Cell cycle arrest in human M21 cells assessed as accumulation at S phase at 25 uM after 24 hrs by DAPI staining-based flow cytometry (reference value: 17.4%); type: functional
[43] = system: M21; assay: Cell cycle arrest in human M21 cells assessed as accumulation at subG1 phase at 25 uM after 24 hrs by DAPI staining-based flow cytometry (reference value: 1.5%); type: functional
[44] = system: M21; assay: Cell cycle arrest in human M21 cells assessed as accumulation at G2/M phase at 25 uM after 24 hrs by DAPI staining-based flow cytometry (reference value: 16%); type: functional
[45] = system: M21; assay: Cell cycle arrest in human M21 cells assessed as accumulation at subG1 phase at 3.8 uM after 24 hrs by DAPI staining-based flow cytometry (reference value: 1.5%); type: functional
[46] = system: M21; assay: Cell cycle arrest in human M21 cells assessed as accumulation at G0/G1 phase at 3.8 uM after 24 hrs by DAPI staining-based flow cytometry (reference value: 65.1%); type: functional
[47] = system: M21; assay: Cell cycle arrest in human M21 cells assessed as accumulation at S phase at 3.8 uM after 24 hrs by DAPI staining-based flow cytometry (reference value: 17.4%); type: functional
[48] = system: M21; assay: Cell cycle arrest in human M21 cells assessed as accumulation at G2/M phase at 3.8 uM after 24 hrs by DAPI staining-based flow cytometry (reference value: 16%); type: functional
[49] = system: M21; assay: Cell cycle arrest in human M21 cells assessed as accumulation at G2/M phase at 49 uM after 24 hrs by DAPI staining-based flow cytometry (reference value: 16%); type: functional
[50] = system: M21; assay: Cell cycle arrest in human M21 cells assessed as accumulation at S phase at 49 uM after 24 hrs by DAPI staining-based flow cytometry (reference value: 17.4%); type: functional
[51] = system: M21; assay: Cell cycle arrest in human M21 cells assessed as accumulation at subG1 phase at 49 uM after 24 hrs by DAPI staining-based flow cytometry (reference value: 1.5%); type: functional
[52] = system: M21; assay: Cell cycle arrest in human M21 cells assessed as accumulation at G0/G1 phase at 49 uM after 24 hrs by DAPI staining-based flow cytometry (reference value: 65.1%); type: functional

| SMILES | IC50 [2] | IC50 [3] | IC50 [4] | IC50 [5] | other results |
| --- | --- | --- | --- | --- | --- |
| O=C(NCCCl)Nc1ccc(S(=O)(=O)Oc2cc(Br)cc(Br)c2)cc1 | 0.4 µM | 0.4 µM | 0.3 µM | 0.24 µM | Activity [1]: 2.6%; Activity [6]: 83.4%; Activity [7]: 6.9%; Activity [8]: 7.1% |
| CCOc1cccc(OS(=O)(=O)c2ccc(NC(=O)NCCCl)cc2)c1 | 3.3 µM | 3.3 µM | 3.2 µM | 2.4 µM | Activity [9]: 8.4%; Activity [10]: 22.2%; Activity [11]: 13.5%; Activity [12]: 55.9% |
| O=C(NCCCl)Nc1ccc(S(=O)(=O)Oc2ccc(Br)cc2)cc1 | 9.6 µM | 9.4 µM | 8.3 µM | 8.1 µM | Activity [13]: 12%; Activity [14]: 4.4%; Activity [15]: 76.1%; Activity [16]: 7.5% |
| COc1cc(OC)cc(OS(=O)(=O)c2ccc(NC(=O)NCCCl)cc2)c1 | 1.5 µM | 2 µM | 1.1 µM | 1.1 µM | Activity [17]: 5.2%; Activity [18]: 11.4%; Activity [19]: 9.3%; Activity [20]: 74.1% |
| O=C(NCCCl)Nc1ccc(S(=O)(=O)Oc2ccc(F)c(F)c2)cc1 | 8.1 µM | 8.9 µM | 7 µM | 7.3 µM | Activity [21]: 7.6%; Activity [22]: 11.6%; Activity [23]: 18.3%; Activity [24]: 62.5% |
| COc1cc(OS(=O)(=O)c2ccc(NC(=O)NCCCl)cc2)cc(OC)c1OC | 0.64 µM | 0.66 µM | 0.5 µM | 0.47 µM | Activity [25]: 15.6%; Activity [26]: 9%; Activity [27]: 9.3%; Activity [28]: 66.1% |
| CCCc1cccc(OS(=O)(=O)c2ccc(NC(=O)NCCCl)cc2)c1 | 2.6 µM | 3.9 µM | 3.4 µM | 3.3 µM | Activity [29]: 78.3%; Activity [30]: 9.9%; Activity [31]: 5.8%; Activity [32]: 6% |
| O=C(NCCCl)Nc1ccc(S(=O)(=O)Oc2cc(F)cc(F)c2)cc1 | 5.7 µM | 5.7 µM | 4.8 µM | 5 µM | Activity [33]: 10.2%; Activity [34]: 7.4%; Activity [35]: 75.7%; Activity [36]: 6.7% |
| CCCCOc1ccc(OS(=O)(=O)c2ccc(NC(=O)NCCCl)cc2)cc1 | 3.4 µM | 7.1 µM | 6.5 µM | 7.7 µM | Activity [37]: 9.1%; Activity [38]: 39.7%; Activity [39]: 42.9%; Activity [40]: 8.3% |
| COc1cccc(OS(=O)(=O)c2ccc(NC(=O)NCCCl)cc2)c1 | 3.1 µM | 4.2 µM | 3.8 µM | 3.6 µM | Activity [41]: 2.5%; Activity [42]: 6.3%; Activity [43]: 3.5%; Activity [44]: 87.7% |
| O=C(NCCCl)Nc1ccc(S(=O)(=O)Oc2cc(Cl)cc(Cl)c2)cc1 | 1.1 µM | 1 µM | 0.55 µM | 0.51 µM | Activity [45]: 7.2%; Activity [46]: 2.5%; Activity [47]: 6%; Activity [48]: 84.3% |
| CCOc1ccc(OS(=O)(=O)c2ccc(NC(=O)NCCCl)cc2)cc1 | 8.3 µM | 9.5 µM | 7.8 µM | 8.3 µM | Activity [49]: 74.9%; Activity [50]: 8.2%; Activity [51]: 3.5%; Activity [52]: 13.4% |
